Reference: PubChem BioAssay AID1963966 (Molecular Pharmacology Branch, DTP, NCI, 2024)

System: 935938-334-R-J1-PDC spheroids with HUVEC/MSC, viability
Assay: Anticancer human tumor 935938-334-R-J1-PDC patient-derived small intestine adenocarcinoma cell line growth inhibition [PI3K]
Conditions: for IC50: curve of first compound; for viability, T/C: stronger effect = lower value
Summary of the method: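 Combination activity was assessed by viability in multicellular tumor spheroids carrying HUVEC and MSC components. Agents were tested with PI3K inhibitors from a Cmax-based top dose (or 10 microM) downward in half-log increments.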

[1] = second compound 0.00316 µM, first compound 0.0316 µM
[2] = second compound 0.00316 µM, first compound 0.1 µM
[3] = second compound 0.00316 µM, first compound 0.316 µM
[4] = second compound 0.00316 µM, first compound 1 µM
[5] = second compound 0.01 µM, first compound 0.0316 µM
[6] = second compound 0.01 µM, first compound 0.1 µM
[7] = second compound 0.01 µM, first compound 0.316 µM
[8] = second compound 0.01 µM, first compound 1 µM
[9] = second compound 0.0316 µM, first compound 0.0316 µM
[10] = second compound 0.0316 µM, first compound 0.1 µM
[11] = second compound 0.0316 µM, first compound 0.316 µM
[12] = second compound 0.0316 µM, first compound 1 µM
[13] = second compound 0.1 µM, first compound 0.0316 µM
[14] = second compound 0.1 µM, first compound 0.1 µM
[15] = second compound 0.1 µM, first compound 0.316 µM
[16] = second compound 0.1 µM, first compound 1 µM
[17] = second compound 0.316 µM, first compound 0.0316 µM
[18] = second compound 0.316 µM, first compound 0.1 µM
[19] = second compound 0.316 µM, first compound 0.316 µM
[20] = second compound 0.316 µM, first compound 1 µM
[21] = second compound 1 µM, first compound 0.0316 µM
[22] = second compound 1 µM, first compound 0.1 µM
[23] = second compound 1 µM, first compound 0.316 µM
[24] = second compound 1 µM, first compound 1 µM
[25] = second compound 0.00316 µM, first compound 3.16 µM
[26] = second compound 0.00316 µM, first compound 10 µM
[27] = second compound 0.01 µM, first compound 3.16 µM
[28] = second compound 0.01 µM, first compound 10 µM
[29] = second compound 0.0316 µM, first compound 3.16 µM
[30] = second compound 0.0316 µM, first compound 10 µM
[31] = second compound 0.1 µM, first compound 3.16 µM
[32] = second compound 0.1 µM, first compound 10 µM
[33] = second compound 0.316 µM, first compound 3.16 µM
[34] = second compound 0.316 µM, first compound 10 µM
[35] = second compound 1 µM, first compound 3.16 µM
[36] = second compound 1 µM, first compound 10 µM
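Note: compound exposure lasted seven days before viability was read.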
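Throughout, for viability, T/C: percent of vehicle DMSO treated spheroid viability so 100% = untreated.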

CCN1CCN(Cc2ccc(Nc3ncc(F)c(-c4cc(F)c5nc(C)n(C(C)C)c5c4)n3)nc2)CC1 + COc1c(OCCCN2CCOCC2)ccc2c3n(c(=NC(=O)c4cnc(N)nc4)nc12)CCN3
IC50 (second compound 0.00316 µM): 296 nM | IC50 (second compound 0.01 µM): 582 nM | IC50 (second compound 0.0316 µM): 91.8 nM | IC50 (second compound 0.1 µM): < 3.16 nM | IC50 (second compound 0.316 µM): < 3.16 nM | IC50 (second compound 1 µM): < 3.16 nM | viability, T/C (second compound 0.00316 µM, first compound 0.00316 µM): 80.1% | viability, T/C (second compound 0.00316 µM, first compound 0.01 µM): 93.5% | viability, T/C [1]: 89.8% | viability, T/C [2]: 72% | viability, T/C [3]: 49.9% | viability, T/C [4]: 43.5% | viability, T/C (second compound 0.01 µM, first compound 0.00316 µM): 97.4% | viability, T/C (second compound 0.01 µM, first compound 0.01 µM): 74% | viability, T/C [5]: 68.6% | viability, T/C [6]: 60.4% | viability, T/C [7]: 51.8% | viability, T/C [8]: 47.1% | viability, T/C (second compound 0.0316 µM, first compound 0.00316 µM): 66.5% | viability, T/C (second compound 0.0316 µM, first compound 0.01 µM): 66.1% | viability, T/C [9]: 60.8% | viability, T/C [10]: 47.8% | viability, T/C [11]: 38.8% | viability, T/C [12]: 30.3% | viability, T/C (second compound 0.1 µM, first compound 0.00316 µM): 45.9% | viability, T/C (second compound 0.1 µM, first compound 0.01 µM): 40.7% | viability, T/C [13]: 37% | viability, T/C [14]: 37.7% | viability, T/C [15]: 29.6% | viability, T/C [16]: 28.4% | viability, T/C (second compound 0.316 µM, first compound 0.00316 µM): 36.2% | viability, T/C (second compound 0.316 µM, first compound 0.01 µM): 33.8% | viability, T/C [17]: 27.1% | viability, T/C [18]: 29.6% | viability, T/C [19]: 33.1% | viability, T/C [20]: 30.8% | viability, T/C (second compound 1 µM, first compound 0.00316 µM): 32.6% | viability, T/C (second compound 1 µM, first compound 0.01 µM): 35% | viability, T/C [21]: 35.6% | viability, T/C [22]: 28.5% | viability, T/C [23]: 32.7% | viability, T/C [24]: 28.6%

Cn1ncc(Cl)c1-c1cc(C(=O)NC(CN)Cc2cccc(F)c2)sc1Cl (stereo unspecified) + COc1c(OCCCN2CCOCC2)ccc2c3n(c(=NC(=O)c4cnc(N)nc4)nc12)CCN3
IC50 (second compound 0.00316 µM): 1680 nM | IC50 (second compound 0.01 µM): 1180 nM | IC50 (second compound 0.0316 µM): 1040 nM | IC50 (second compound 0.1 µM): 57.2 nM | IC50 (second compound 0.316 µM): < 31.6 nM | IC50 (second compound 1 µM): < 31.6 nM | viability, T/C [1]: 103% | viability, T/C [2]: 114% | viability, T/C [3]: 60.6% | viability, T/C [4]: 63.7% | viability, T/C [25]: 49.3% | viability, T/C [26]: 32.8% | viability, T/C [5]: 78.7% | viability, T/C [6]: 86.6% | viability, T/C [7]: 65.5% | viability, T/C [8]: 50.9% | viability, T/C [27]: 41.1% | viability, T/C [28]: 28.5% | viability, T/C [9]: 70.7% | viability, T/C [10]: 71.3% | viability, T/C [11]: 68% | viability, T/C [12]: 50.4% | viability, T/C [29]: 30.6% | viability, T/C [30]: 25% | viability, T/C [13]: 55% | viability, T/C [14]: 43% | viability, T/C [15]: 41.7% | viability, T/C [16]: 37.8% | viability, T/C [31]: 25.3% | viability, T/C [32]: 27% | viability, T/C [17]: 35.5% | viability, T/C [18]: 30.2% | viability, T/C [19]: 30.9% | viability, T/C [20]: 28.6% | viability, T/C [33]: 26.8% | viability, T/C [34]: 20.9% | viability, T/C [21]: 33.5% | viability, T/C [22]: 26.9% | viability, T/C [23]: 34.2% | viability, T/C [24]: 34.5% | viability, T/C [35]: 32.6% | viability, T/C [36]: 21.6%

Cn1nccc1Nc1nccc(-c2ccn(C(CO)c3ccc(Cl)c(F)c3)c(=O)c2)n1 (stereo unspecified) + COc1c(OCCCN2CCOCC2)ccc2c3n(c(=NC(=O)c4cnc(N)nc4)nc12)CCN3
IC50 (second compound 0.00316 µM): 1380 nM | IC50 (second compound 0.01 µM): 1500 nM | IC50 (second compound 0.0316 µM): 566 nM | IC50 (second compound 0.1 µM): < 31.6 nM | IC50 (second compound 0.316 µM): < 31.6 nM | IC50 (second compound 1 µM): < 31.6 nM | viability, T/C [1]: 81.5% | viability, T/C [2]: 99.5% | viability, T/C [3]: 54.7% | viability, T/C [4]: 58.4% | viability, T/C [25]: 41.4% | viability, T/C [26]: 25.2% | viability, T/C [5]: 85.7% | viability, T/C [6]: 77.8% | viability, T/C [7]: 68.9% | viability, T/C [8]: 55.6% | viability, T/C [27]: 39.9% | viability, T/C [28]: 28% | viability, T/C [9]: 58.8% | viability, T/C [10]: 76.7% | viability, T/C [11]: 49.2% | viability, T/C [12]: 46.1% | viability, T/C [29]: 33.5% | viability, T/C [30]: 28% | viability, T/C [13]: 49.4% | viability, T/C [14]: 39.6% | viability, T/C [15]: 40.1% | viability, T/C [16]: 28% | viability, T/C [31]: 18.1% | viability, T/C [32]: 20.6% | viability, T/C [17]: 36.4% | viability, T/C [18]: 32% | viability, T/C [19]: 22.3% | viability, T/C [20]: 22.4% | viability, T/C [33]: 21.7% | viability, T/C [34]: 23% | viability, T/C [21]: 34.6% | viability, T/C [22]: 27% | viability, T/C [23]: 25.1% | viability, T/C [24]: 23.9% | viability, T/C [35]: 19.5% | viability, T/C [36]: 17.9%
